In ChEMBL document CHEMBL1201862, “PubChem BioAssay data set” (2004):
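Tested at 5 concentrations; 48 h exposure; 96-well plates; endpoints linearly interpolated, else capped at highest concentration. GI50 marks 50% less growth.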 Active and inactive are the calls of the source. Cut-off read from the data, not from the text of the source: active = GI50 up to about 1.1 µM and inactive = higher.

How the values were obtained:
Experiment in all cases: growth of human tumour cells (NCI), 48 h
M19-MEL = system: M19-MEL
786-0 = system: 786-0
HL-60 = system: HL-60
IGROV-1 = system: IGROV-1
HCT-15 = system: HCT-15
RXF 631 = system: RXF 631
M14 = system: M14
SK-MEL-5 = system: SK-MEL-5
U-251 = system: U-251
SW-620 = system: SW-620
OVCAR-5 = system: OVCAR-5
LXFL 529 = system: LXFL 529
EKVX = system: EKVX
OVCAR-8 = system: OVCAR-8
DMS-273 = system: DMS-273
SNB-78 = system: SNB-78
TK-10 = system: TK-10
SF-539 = system: SF-539
NCI-H226 = system: NCI-H226
MOLT-4 = system: MOLT-4
OVCAR-3 = system: OVCAR-3
RXF 393 = system: RXF 393
SK-OV-3 = system: SK-OV-3
HOP-18 = system: HOP-18
SNB-75 = system: SNB-75
ACHN = system: ACHN
COLO 205 = system: COLO 205
RPMI-8226 = system: RPMI-8226
UACC-62 = system: UACC-62
A498 = system: A498
K562 = system: K562
OVCAR-4 = system: OVCAR-4
HT-29 = system: HT-29
CCRF-CEM = system: CCRF-CEM
DLD-1 = system: DLD-1
A549 = system: A549
NCI-H23 = system: NCI-H23
HCC 2998 = system: HCC 2998
XF498 = system: XF498
SN12C = system: SN12C
SK-MEL-28 = system: SK-MEL-28
KM12 = system: KM12
Malme-3M = system: Malme-3M
UO-31 = system: UO-31
SNB-19 = system: SNB-19
SR = system: SR
DMS-114 = system: DMS-114
SF-268 = system: SF-268
NCI-H460 = system: NCI-H460
LOX IMVI = system: LOX IMVI
SF-295 = system: SF-295

Measured: GI50

O=C1NC(=O)C2C1c1[nH]c3ccccc3c1C1CCCC12 (stereo unspecified)
inactive: 786-0 5.02 µM | IGROV-1 14.1 µM | RXF 631 3.44 µM | M14 1.73 µM | U-251 3.1 µM | OVCAR-5 > 100 µM | LXFL 529 6.37 µM | EKVX 6.76 µM | OVCAR-8 4.93 µM | SNB-78 6.35 µM | TK-10 8.75 µM | SF-539 3.03 µM | NCI-H226 3.61 µM | MOLT-4 2.44 µM | OVCAR-3 1.83 µM | RXF 393 2.7 µM | SK-OV-3 4.49 µM | HOP-18 25.3 µM | SNB-75 2.17 µM | ACHN 22.3 µM | COLO 205 4.23 µM | RPMI-8226 3.41 µM | UACC-62 5.47 µM | A498 4.76 µM | OVCAR-4 25.6 µM | HT-29 2.07 µM | CCRF-CEM 1.86 µM | DLD-1 3.87 µM | NCI-H23 3.79 µM | HCC 2998 6.55 µM | SN12C 6.87 µM | SK-MEL-28 4.1 µM | KM12 2.17 µM | Malme-3M 2.52 µM | UO-31 6.55 µM | SNB-19 5.07 µM | SR 2.81 µM | DMS-114 1.35 µM | SF-268 4.02 µM | NCI-H460 4.17 µM | LOX IMVI 3.52 µM | SF-295 1.29 µM
active: M19-MEL 0.971 µM | HL-60 0.573 µM | SK-MEL-5 0.893 µM | SW-620 0.951 µM | DMS-273 0.481 µM | K562 0.48 µM | A549 0.916 µM | XF498 0.538 µM
1.49 µM: HCT-15
